In one experiment the target is SARS-CoV-2 PL^pro (Severe acute respiratory syndrome coronavirus 2, UniProt P0DTD1). Put plainly: PL^pro enzymatic assay. Format: biochemical.
Experiment [1] has as its system SARS-CoV-2 UC-1075 strain. Put plainly: SARS-CoV-2 antiviral assay in Vero cells, strain UC-1075. The note with it: Severe acute respiratory syndrome coronavirus 2, UC1075, Vero, 120 h, read-out: Antiviral activity EC50 UC-1075 #1 strain Vero cells. Format: cell-based.
The next experiment relates to cytomegalovirus. Briefly: Antiviral activity over Vero cells infected with CMV. Format: cell-based. The note with it: data not shown.
The next experiment relates to varicella zoster virus. Put plainly: Antiviral activity over Vero cells infected with VZV. Format: cell-based. The note with it: data not shown.
Experiment [2] deals with SARS-CoV-2 UC-1074 strain. Put plainly: SARS-CoV-2 antiviral assay in Vero cells, strain UC-1074. It counts as cell-based. The note with it: over two different SARS-CoV-2 strains as worded.

The structures appear in SMILES notation. Where a SMILES comes first, the peptide text is derived from it. [ ]: non-standard residue; d: D form. The star is where a group is joined. AllylGly = C=CC[C@H](N)C(=O)O; Boc = CC(C)(C)OC(=O)*; NHBn = c1ccc(CN*)cc1; NHtBu = CC(C)(C)N*; ClAc = O=C(CCl)* Bounds are passed on as bounds.

One may read the IC50 as the concentration at which inhibition is half-maximal. `CC(C)(C)NC(=O)[C@H](Cc1c[nH]c2ccccc12)NC(=O)[C@@H]1CCCN1C(=O)OC(C)(C)C` [Compound 7, tert-butyl 2-((1-(tert-butylamino)-3-(1H-indol-3-yl)-1-oxopropan-2-yl)carbamoyl)pyrrolidine-1-carboxylate] (Boc-Pro-Trp-NHtBu) returned an IC50 against SARS-CoV-2 PL^pro greater than 25 µM. At SARS-CoV-2 PL^pro, `CC(C)(C)NC(=O)[C@H](Cc1c[nH]c2ccccc12)NC(=O)[C@H](Cc1ccccc1)NCc1ccc(-c2ccccc2)cc1` [Compound 22, (S)-2-(([1,1′-biphenyl]-4-ylmethyl)amino)-N-((S)-1-(tert-butylamino)-3-(1H-indol-3-yl)-1-oxopropan-2-yl)-3-phenylpropanamide] registered an IC50 greater than 25 µM.

Regarding `CC(C)C[C@H](NCc1ccc(-c2ccccc2)cc1)C(=O)N[C@@H](Cc1c[nH]c2ccccc12)C(=O)NC(C)(C)C` [Compound 23, 2-(([1,1′-biphenyl]-4-ylmethyl)amino)-N-(1-(tert-butylamino)-3-(1H-indol-3-yl)-1-oxopropan-2-yl)-4-methylpentanamide], the IC50 on SARS-CoV-2 PL^pro was greater than 25 µM. The same measure, in the same setting: the figure for `C#CC[C@H](NCc1ccc(-c2ccccc2)cc1)C(=O)N[C@@H](Cc1c[nH]c2ccccc12)C(=O)NC(C)(C)C` [Compound 24, (S)-2-(([1,1′-biphenyl]-4-ylmethyl)amino)-N-((S)-1-(tert-butylamino)-3-(1H-indol-3-yl)-1-oxopropan-2-yl)pent-4-ynamide] is greater than 25 µM. As a reminder, the EC50 is the concentration needed to bring the measured effect to its halfway point. In turn, `CC(C)C[C@H](NCc1ccc(-c2ccccc2)cc1)C(=O)N[C@@H](Cc1c[nH]c2ccccc12)C(=O)NCc1ccccc1` [Compound 25, (S)-2-(([1,1′-biphenyl]-4-ylmethyl)amino)-N-((S)-1-(benzylamino)-3-(1H-indol-3-yl)-1-oxopropan-2-yl)-4-methylpentanamide] displayed an IC50 against SARS-CoV-2 PL^pro greater than 25 µM. Further, the EC50 in experiment [1] is greater than 20 µM.

Take `C=CC[C@H](NCc1ccccc1)C(=O)N[C@@H](Cc1c[nH]c2ccccc12)C(=O)NCc1ccc(-c2ccccc2)cc1` [Compound 26, (S)–N-((S)-1-(([1,1′-biphenyl]-4-ylmethyl)amino)-3-(1H-indol-3-yl)-1-oxopropan-2-yl)-2-(benzylamino)pent-4-enamide]: at SARS-CoV-2 PL^pro, the IC50 was greater than 25 µM. On to `C#CC[C@H](NCc1ccccc1)C(=O)N[C@@H](Cc1c[nH]c2ccccc12)C(=O)NCc1ccc(-c2ccccc2)cc1` [Compound 27, (S)–N-((S)-1-(([1,1′-biphenyl]-4-ylmethyl)amino)-3-(1H-indol-3-yl)-1-oxopropan-2-yl)-2-(benzylamino)pent-4-ynamide], for which the IC50 at SARS-CoV-2 PL^pro was greater than 25 µM. In addition, the “Antiviral effect over cytomegalovirus” value with cytomegalovirus is “no effects”. In addition, the “Antiviral effect over varicella zoster virus” value in the experiment on varicella zoster virus is on record as “no effects”.

In the case of `C#CC[C@H](NCCC)C(=O)N[C@@H](Cc1c[nH]c2ccccc12)C(=O)NCc1ccc(-c2ccccc2)cc1` [Compound 28, (S)–N-((S)-1-(([1,1′-biphenyl]-4-ylmethyl)amino)-3-(1H-indol-3-yl)-1-oxopropan-2-yl)-2-(propylamino)pent-4-ynamide], at SARS-CoV-2 PL^pro, the IC50 was greater than 25 µM. Turning to `C=CC[C@H](NC(=O)CCl)C(=O)N[C@@H](Cc1c[nH]c2ccccc12)C(=O)NCc1ccccc1` [Compound 29, (S)–N-((S)-1-(benzylamino)-3-(1H-indol-3-yl)-1-oxopropan-2-yl)-2-(2-chloroacetamido)pent-4-enamide] (ClAc-[AllylGly]-Trp-NHBn), the “Cellular antiviral potency relative to compound 27 (fold higher)” value in experiment [2] was 28 fold. For the same molecule, the “Antiviral effect over cytomegalovirus” value in the experiment on cytomegalovirus is “no effects”. For the same molecule, the “Antiviral effect over varicella zoster virus” value in the experiment on varicella zoster virus was “no effects”. `C#CC[C@H](NC(=O)OC(C)(C)C)C(=O)N(Cc1ccccc1)Cc1cn(C)c2ccc(C(=O)OC)cc12` [Compound 35, (S)-Methyl 3-((N-benzyl-2-((tert-butoxycarbonyl)amino)pent-4-ynamido)methyl)-1-methyl-1H-indole-5-carboxylate] showed an IC50 against SARS-CoV-2 PL^pro greater than 25 µM.

For the origin of these results see publication PMC8457654 (European Journal of Medicinal Chemistry, 2021).
